Values after ≈ are worked out from the molar mass of the structure shown. Some results are limits rather than exact numbers.

This is an account of results in PubChem BioAssay AID1996.

The conditions of the data set: buffer; pH 7.4; 200.0 µM.
Regarding `Cc1ccccc1C(=O)OC1CCN(C)CC1.Cl`, the kinetic solubility was above 40.5 µg/mL.
Under `CCOc1ncccc1C(=O)NCCc1c[nH]c2ccccc12` stands 8.7 µg/mL (≈ 28.1 µM); under `CCOn1c(=O)c(-c2ccc(F)cc2)[n+]([O-])c2ccccc21`, 9.9 µg/mL (≈ 33 µM).
As to `O=C(NCc1nc2ccccc2[nH]1)C1CCCCC1`, the solubility (kinetic) was above 38.6 µg/mL.
In turn, `NC(=O)COn1c(SCC(N)=O)nc2ccccc2c1=O` registered a kinetic solubility above 46.2 µg/mL.
`Cc1ccccc1C(=O)NCCNC(=O)c1ccco1` registered a kinetic solubility above 40.8 µg/mL.
Under `COc1ccc2c(c1)[C@@]13CCC=C[C@H]1[C@@H](C2)NCC3.Cl` stands above 43.8 µg/mL; under `COc1cccc(N2CCC(N3CCN(C)C(CCO)C3)CC2)c1` (centres undefined), 48.4 µg/mL (≈ 145 µM); under `NC(=O)C1CCN(C(=O)c2ccc3ccccc3c2)CC1`, above 42.4 µg/mL.
As for `COCc1cc(=O)[nH]c(-c2ccccc2OC(F)(F)F)n1`, the figure is above 45 µg/mL; as for `CC(=O)Nc1ccc(C(=O)COC(=O)C2CC2C)c(F)c1` (centres undefined), above 44 µg/mL.
Under `CC1(C)CC(=O)C2=C(C1)Nc1ccccc1NC2c1ccccc1F` (centres undefined) stands 10.5 µg/mL (≈ 31.2 µM); under `CC1CC(NC(=O)CC#N)CC(C)(C)C1` (centres undefined), above 31.2 µg/mL; under `Cc1ccc(/C=N\NC(=O)C2CC(=O)N(c3ccccc3)C2)o1` (centres undefined), above 46.7 µg/mL.
Consider `COc1cccc(C(=O)Oc2ccc(N3C(=O)CCC3=O)c(C)c2)c1`, for which the kinetic solubility is above 50.9 µg/mL.
Under `CCn1c(/C=C2\C(=O)N(C(C)C)c3ccccc32)nc2ccccc2c1=O` stands 22.2 µg/mL (≈ 61.8 µM); under `Cc1cc(N2CCCC2)ccc1NC(=O)COc1ccc(Cl)cc1`, 4.4 µg/mL (≈ 12.8 µM).
Under `CN(c1ccccc1)c1nc(N)c([N+](=O)[O-])c(Nc2ccccc2F)n1` stands below 0.1 µg/mL; under `CCN(C(=O)CSc1nc(C)nc2sc3c(c12)CCC3)C1CCS(=O)(=O)C1` (centres undefined), 5.4 µg/mL (≈ 12.7 µM); under `O=C1CSC(c2ccc([N+](=O)[O-])cc2)N1c1ccccc1` (centres undefined), 42 µg/mL (≈ 140 µM).
As for `CC1(C)CC(NC(=O)c2cccc(Cl)c2)CC(C)(C)N1`, the figure is above 44.2 µg/mL.
For the molecule `CC(C)(CNS(=O)(=O)c1cccs1)N1CCOCC1`, the solubility (kinetic) was above 45.7 µg/mL.
As for `Cc1cc(NC(=O)c2ccc3[nH]c(C)c(C)c3c2)ccn1`, the figure is 37.6 µg/mL (≈ 135 µM); as for `N#Cc1cccc(NC(=O)CN2CCCCCC2)c1`, above 38.6 µg/mL; as for `COC(=O)c1ccc(N2CCN(C)CC2)c(NC(=O)c2cccnc2)c1`, 51.4 µg/mL (≈ 145 µM).
As for `Nc1ccc(Sc2ccccc2Cl)nc1`, the figure is above 35.5 µg/mL.
As for `COc1cc(C(=O)Nc2ccc(C(=O)c3cccs3)cc2)cc(OC)c1OC`, the figure is 8.2 µg/mL (≈ 20.6 µM); as for `CCC(C)N(C(=O)CSc1nncn1C)C1CCS(=O)(=O)C1` (centres undefined), above 52 µg/mL; as for `COC(=O)NC1(C(F)(F)F)C(=O)Nc2c1c(=O)n(C)c(=O)n2C` (centres undefined), 47.3 µg/mL (≈ 141 µM).
`CCSc1nc2cc(S(=O)(=O)N3CCOCC3)ccc2o1` registered a solubility (kinetic) above 49.3 µg/mL.
As for `CCN(CC)S(=O)(=O)c1ccc(=O)[nH]c1`, the figure is above 34.5 µg/mL.
`CC(C)(C)NC(=O)C(=O)NNC(=O)c1ccco1`: the solubility (kinetic) was above 38 µg/mL.
As for `CCOc1ccc(Nc2nc(NCc3ccco3)nc(N)c2[N+](=O)[O-])cc1`, the figure is below 0.1 µg/mL; as for `Cc1cc(C)c(C)c(S(=O)(=O)NCCN2CCOCC2)c1C`, 48.8 µg/mL (≈ 149 µM); as for `O=C(Cc1c(F)cccc1Cl)Nc1ccccn1`, 30.2 µg/mL (≈ 114 µM).
Under `Cc1ccc(NC(=O)CN(C)C(=O)c2ccc(Br)o2)cc1` stands 14.1 µg/mL (≈ 40.1 µM).
As for `CCN1CCc2nc3ccccc3c(C(=O)Nc3ccc(F)cc3)c2C1`, the figure is 8.3 µg/mL (≈ 23.8 µM); as for `CCN(CC)CCN(C(=O)/C=C/c1cccs1)c1nc2ccc(Cl)cc2s1.Cl`, below 0.3 µg/mL.
`COC(=O)c1sccc1NC(=O)c1ccccc1Br` yielded a solubility (kinetic) of 2.3 µg/mL (≈ 6.76 µM).
As for `O=C(CCS(=O)(=O)Cc1ccccc1)NCCc1ccccc1`, the figure is 11.9 µg/mL (≈ 35.9 µM); as for `COc1ccccc1C(=O)Nc1ccccc1C(=O)Nc1ccccc1`, below 0.4 µg/mL; as for `COC(CNC(=O)c1cccnc1)OC`, 26.4 µg/mL (≈ 126 µM).
As to `CC(=O)Nc1cccc(NC(=O)C2CC(=O)N(CCc3ccc(F)cc3)C2)c1` (centres undefined), the solubility (kinetic) turned out to be 38.4 µg/mL (≈ 100 µM).
The molecule `Cc1ccc(NC(=O)CSc2nncs2)cc1Cl` yielded a kinetic solubility above 45 µg/mL.
As to `CC(NC(=O)NC(=O)c1ccc(F)cc1)C1CC1` (centres undefined), the solubility (kinetic) was determined as 16.2 µg/mL (≈ 64.7 µM).
As for `OCCC1CN(C2CCSCC2)CCN1C1CCCC1` (centres undefined), the figure is 34.5 µg/mL (≈ 116 µM); as for `Cc1c2n(c3ccccc13)CC/C2=N\O`, 4.9 µg/mL (≈ 24.5 µM); as for `Cc1ccc(NS(=O)(=O)c2ccc3[nH]c(=O)c(=O)[nH]c3c2)cc1Cl`, 11.5 µg/mL (≈ 31.4 µM).
Under `Cc1ccc(S(=O)(=O)N2CCOCC2)cc1C(=O)OCC(=O)NC1CCCC1` stands above 61.6 µg/mL; under `N#Cc1ccccc1NC(=S)NC(=O)C1CCC1`, above 38.9 µg/mL.
As for `CC(C)Cc1ccc(C(C)C(=O)Nc2ccccc2O)cc1` (centres undefined), the figure is 1.9 µg/mL (≈ 6.39 µM); as for `O=C(COC(=O)c1ccc2ncsc2c1)NCc1ccccc1Cl`, 10.4 µg/mL (≈ 28.8 µM); as for `COC(=O)c1sccc1NC(=S)N1CCC(C(N)=O)CC1`, 42.5 µg/mL (≈ 130 µM).
`O=S(=O)(NCCN1CCCC1)c1ccc(Cl)cc1` displayed a kinetic solubility of 40.8 µg/mL (≈ 141 µM).
Under `Cc1nc2oc3ccc(F)cc3c(=O)c2cc1C(=O)O` stands 40.8 µg/mL (≈ 149 µM); under `CN(CC(=O)OCC(N)=O)S(=O)(=O)c1ccc(Cl)cc1`, above 48.1 µg/mL.
`O=C(Nc1cccc(NC(=O)c2cccs2)c1)c1cccnc1` yielded a kinetic solubility above 48.5 µg/mL.
In turn, `O/N=C\c1ccc2noc(-c3ccc(Cl)cc3)c2c1` came in with a solubility (kinetic) below 0.3 µg/mL.
Under `COc1ccc(-c2cc(-c3ccc(O)cc3)nc(N)c2C#N)cc1` stands 0.8 µg/mL (≈ 2.52 µM); under `CCN(C(=O)CSc1cccc[n+]1[O-])C1CCCCC1`, above 44.2 µg/mL.
Under `Cc1cccc(OCCCn2c(CO)nc3ccccc32)c1` stands above 44.5 µg/mL; under `CCC(C(=O)OCC(=O)NC(=O)NC(C)(C)C)c1ccccc1` (centres undefined), 2 µg/mL (≈ 6.24 µM); under `Cc1cc(C(=O)OCC(=O)N2CCOCC2)c(C)n1-c1ccccc1`, 48.6 µg/mL (≈ 142 µM).
The molecule `COc1ccc(CN2CCc3c([nH]c4ccccc34)C2)c(OC)c1C` yielded a solubility (kinetic) of 35.2 µg/mL (≈ 105 µM).
The molecule `CCCCNC(=S)Nc1ccc(F)cc1` returned a solubility (kinetic) of 30.1 µg/mL (≈ 133 µM).
Under `O=[N+]([O-])c1cccc(C(=NCc2ccccc2)NO)c1` stands above 40.7 µg/mL; under `CC1CN(C(=O)c2cc([N+](=O)[O-])cc([N+](=O)[O-])c2)CC(C)O1` (centres undefined), above 46.4 µg/mL; under `Cc1nnc(SCC(=O)NCC2CCCO2)n1Cc1ccccc1` (centres undefined), above 52 µg/mL.
Under `O=C(CN1C(=O)c2ccccc2C1=O)Nc1ccc(Cl)cn1` stands 4.6 µg/mL (≈ 14.6 µM); under `CCCNC(=O)CSc1nc(Cc2ccccc2)nc2ccccc12`, 8.2 µg/mL (≈ 23.3 µM); under `CN(C)c1ccc(/C=C/C(=O)c2cccnc2)cc1`, 9.5 µg/mL (≈ 37.7 µM).
As for `Cc1noc(NS(=O)(=O)c2ccc(NC(=O)/C=C/c3ccccc3)cc2)c1C`, the figure is above 59.6 µg/mL.
Molecule `Cc1nn(C)cc1C(=O)Nc1ccc2c(c1)OCCO2` returned a kinetic solubility above 41 µg/mL.
As for `O=[N+]([O-])c1ccc(CN2CCN(c3ccc([N+](=O)[O-])cc3)CC2)cc1`, the figure is 2 µg/mL (≈ 5.84 µM).
